Assay [1] relates to MTAP(+) HF cells. The experiment in a line: Coulter counts of HF cell cultures. The format is cell-based, human. Particulars: for Coulter counts: x56 = cells/dish. On the procedure: For adherent cell types (e.g., HF, A549, MCF7) cells were plated in 60 mm -diameter plastic tissue culture dishes and incubated at 37° C. in a humidified 5% CO2 atmosphere, in Dulbecco's Modified Eagle's Medium (DME) with 10% fetal bovine serum (FBS). At the start of an experiment, medium was replaced with DME and 10% dialyzed FBS.
(§1) For adherent cell types, cell numbers were determined periodically by releasing cells with trypsin (dead cells that were no longer adherent were removed by two prior rinses of the culture dish) and placing a portion of the resulting cell suspension in a Coulter counter. For cell types that grow in suspension, portions of the culture were counted directly, without trypsin treatment. Coulter counts of cells from each dish were done twice, and almost all experiments were done in duplicate. In the presentation of results, raw data for Coulter counts is given in some cases, while in others, counts have been rounded off to two to three significant figures. (Background Coulter counts—i.e., counts of diluent alone—were insignificant.)
Cell cultures were treated with MeP, with or without 5′-dAdo or MTA, for 4 days. The cell cultures were then changed to fresh medium, with the addition of 30 μM Ade to inhibit further action of the analog. Two days later cultures were trypsinized and a portion of the suspension was counted.
• A. F-Ade was added to cultures of HF cells, with varying amounts of 5′-dAdo. After 3 days, cell numbers were counted. • Initial cell count: 1,100 • After three days:
• Cultures of human fibroblasts were treated with DAP, 5′-dAdo, MTA, adenine, or MTX. Thymidine (15 μM) was added to all cultures. • Initial count was: 1807 • Counts, as raw data, after 3 days of incubation, are shown below: […]
• Human fibroblasts in culture were treated with 6-thioguanine (TG), 2,6-diaminopurine (DAP), or 5′-dAdo for 3 days. After trypsinization, cell numbers were counted. • Initial cell number: 296,000

The test system of assay [2] is MTAP(−) A549 cells. The experiment in a line: Coulter counts of A549 cell cultures. Particulars: three days, MTA, 5′-dAdo or Ade 40 μM where present, initial 10,340, x4 = cells per dish. The format is cell-based, human. As to the method: as §1
(§2) • MTAP(−) A549 lung tumor cell cultures were treated with F-Ade, with or without MTA, 5′-dAdo, or adenine (Ade), for three days. Coulter counts of cells, and viable cells as determined by clonogenic assay, are shown below: • Initial cell number: 10,340*
• A549 cell cultures were treated with DAP, with or without 5′-dAdo or adenine, for three days. After trypsinization, one-fourth of the cell suspension was counted, and raw data is shown below, with duplicate counts for each sample. […]

The test system of assay [3] is human and mouse tumor cells. Nature of the assay: Killing of tumor cells by adenine analogs (Applicants' findings, no method given). The format is cell-based.
Assay [4] has as its system MTAP(+) HF cells. The experiment in a line: Clonogenic assay of HF cells. The format is cell-based, human. As to the method: (§3) Cell viability of adherent cell types was measured by clonogenic assay as follows: after releasing cells with trypsin and removing a portion of the cell suspension for Coulter counting, the remainder of the cell suspension was plated in serial dilutions in growth medium, without drugs. After a period sufficient for clones to reach a size visible by eye (usually 2 to 3 weeks), clones were stained with crystal violet in a saline/methanol solution. Dishes that had fewer than 100 clones were deemed suitable for counting. From these counts and from the dilution factors, the approximate number of viable cells, in the parent treatment dishes, was calculated. […] In clonogenic assays, clone size was often variable, especially after treatment with toxic drugs. Moreover, many of the very small clones may have arisen from cells detached during the weeks of incubation. […] Cloning efficiency for healthy, growing A549 cells was about 50%; for HF cells, efficiency was quite variable, ranging from 25 to 75% (perhaps because the HF cell stock varied, from experiment to experiment, in passage number).
• B. F-Ade was added to cultures of MTAP(+) HF cells, with or without 5′-dAdo, for 3 days. Cultures were then trypsinized and serially diluted for clonogenic assay. • Initial number of viable cells per dish: 45,000 • Viable cells after 3 days shown below:
• HF cells were plated, and after they had adhered to the substrate, medium was changed to methionine-free medium, with 10% dialyzed serum. • Initial Coulter count: 73,000*; viable cells: 88,000 • After 3 days in methionine-free medium, with or without L-ethionine (Eth) or MTA: […]

For assay [5], the system named is MTAP(−) A549 cells. The experiment in a line: Clonogenic assay of A549 cells. The format is cell-based, human. On the procedure: as §3
A549 cells were incubated for 4 days with additions shown below, and viable cells measured by clonogenic assay. (Results shown are approximate; see Methods) Cell count in dish at start: 40,000
as §2
• A549 cell cultures were treated with DAP, with or without 5′-dAdo or adenine, for three days. After trypsinization, one-fourth of the cell suspension was counted, and raw data is shown below, with duplicate counts for each sample. The cell suspension was also serially diluted for clonogenic assay. • Counts at start of experiment: Dish one: 36,480; 39,160; Dish two: 52,680; 51,360. • Initial viable cells by clonogenic assay: 180,000.
• Cell cultures were treated with MTX or alanosine for one day. DAP was then added and 3 days later, cells were trypsinized and serially diluted for clonogenic assay. Results are shown below: • Initial viable cells: 146,000
• A549 cells were plated, and after they had adhered to the substrate, medium was changed to methionine-free medium with 10% dialyzed serum. L-ethionine (Eth) and MTA were added, and after 4 days, cell cultures were trypsinized and serially diluted for clonogenic assay. • Initial number of viable cells: 160,000*
• A549 cultures were treated with 6-thioguanine (TG) or 2,6,diaminopurine (DAP), or both, for 3 days. • Initial viable cells: 275,000 • After 3 days: […]

The test system of a further assay is MTAP(+) ML-1 cells. Nature of the assay: Coulter counts of ML-1 suspension cultures. The format is cell-based. On the procedure:
For cell types that grow in suspension (e.g., ML-1, HL-60, K-562) medium was RPMI-1640 with 10% FBS (undialyzed).
as §1
For cells that grow in suspension, the effect of treatments was assessed solely by changes in Coulter count.
• ML-1 cells were incubated in RPMI 1640 with 10% FBS with 5′-dAdo (60 μM) for 6 hours. 5-fluorouracil (FU), 6-thioguanine (TG), or 2,6-diaminopurine (DAP) were then added, and after 2 additional days, 0.5 ml was taken for Coulter counts. Initial Coulter count/ml: 308,000

Assay [6] relates to human fibroblasts (HF cells), MTAP-positive. Nature of the assay: Coculture of HF and MCF7 cells treated with DAP with or without MTA, photographs. The format is cell-based. As to the method:
(§4) FIGS. 6A and 6B present photographs of experiments examining the efficacy of the selective therapeutic method of the invention in two human-tissue coculture experiments. In both experiments human fibroblasts (HF cells), which are MTAP-positive, and MCF7 cells, an MTAP-negative human breast adenocarcinoma cell line, were seeded together into culture dishes, in DME supplemented with 10% dialyzed fetal bovine serum.
(§5) In the experiment of FIG. 6A the cell coculture was treated for four days with 100 μM DAP and 25 μM MTA. At the end of this period, some of the culture dishes were fixed, to be photographed. Other dishes were trypsinized and diluted five-fold into fresh (drug-free) medium with adenine added (to stop any further toxic action of DAP) and allowed to grow for two more, or five more, days, before being fixed for photography.
(§6) In the experiment of FIG. 6B cell cocultures were treated for three days with 200 μM DAP alone or with the addition of 50 μM MTA, or with no drugs at all. As shown in the photo of the dish without any drugs added to the culture medium, both HF and MCF7 grew very well; many large masses of MCF7 cells are visible, with the elongated HF cells interspersed, confluently, between the MCF7 masses.

Assay [7] has as its system MCF7 cells, an MTAP-negative human breast adenocarcinoma cell line. The assay is described as above. The format is cell-based. On the procedure: as §4, §5, §6
The subject of another assay is MTAP(−) A549-ouaR cells. The experiment in a line: Coculture of HF and A549-ouaR cells, clonogenic assay. The format is cell-based, human. On the procedure:
as §3
(§7) HF and A549-ouaR (a ouabain-resistant derivative of the human lung carcinoma cell line A549, isolated by Applicants) cells were cultured together in a medium containing DAP, and with or without 5′-dAdo. After 3 days, cultures were trypsinized and serially diluted into fresh medium for clonogenic assays. Some dishes were treated with 0.1 μM ouabain to kill HF cells and permit easy visualization of surviving A549-ouaR clones. Initial viable cells: HF cells, 11,000; A549-ouaR cells, 40,000.

The subject of assay [8] is MTAP(+) HF cells. The assay is described as above. The format is cell-based, human. On the procedure: as §3, §7
Setting [9] is: a few days of treatment with 100-200 μM DAP.
The mark [10] stands for this setting: three days, DAP 200 μM, MTA 50 μM where present.

The text below walks through data of patent US8796241B2, “Therapy of tumors and infectious agents deficient in methylthioadenosine phosphorylase” (priority 2007, dated 2014).

Marks after values point to notes of the source that are not given here.

With `Nc1nc(F)nc2nc[nH]c12` [F-Ade, 2-fluoroadenine], the Coulter counts is 1478 in the assay on MTAP(+) HF cells [1] (3 days, F-Ade 0.3 μM, 5′-dAdo 7.5 μM where present, initial count 1,100); 976 in the assay on MTAP(+) HF cells [1] (3 days, F-Ade 0.6 μM, 5′-dAdo 7.5 μM where present, initial count 1,100); 7,980 in the assay with MTAP(−) A549 cells [2] (F-Ade 1 μM); 7,890 with MTAP(−) A549 cells [2] (F-Ade 2 μM). In the assay with MTAP(+) HF cells [1] (increasing concentrations of F-Ade), the “inhibition of HF cell growth” value is “increasing inhibition”. For the same molecule, the “killing of human and mouse tumor cells” value in assay [3] was “very rapid and potent killing”. Moreover, the “killing of human tumor cells” value in assay [3] (very short-term assays of 6 to 12 hours) is “effectively kill”. In the assay on MTAP(+) HF cells [4] (2 μM F-Ade, after 3 days), the “survival of HF cells” value is “no HF cells survive”. In addition, the “Viable Cells” value is on record as 0* with MTAP(+) HF cells [4] (3 days, F-Ade 2 μM, 5′-dAdo 30 μM where present, initial viable cells per dish 45,000); 64 in the assay on MTAP(−) A549 cells [5] (three days, F-Ade 1 μM, MTA, 5′-dAdo or Ade 40 μM where present); 0 in the assay on MTAP(−) A549 cells [5] (three days, F-Ade 2 μM, MTA, 5′-dAdo or Ade 40 μM where present). Also, the “toxicity to A549 tumor cells, clonogenic assay” value in the assay with MTAP(−) A549 cells [5] (1 to 2 μM F-Ade) is “highly toxic”.

With `Nc1nc(N)c2[nH]cnc2n1` [DAP, 2,6-diaminopurine], the “Increase in cell number/ml, No 5′-dAdo” value with MTAP(+) ML-1 cells (2 days, FU 3 μM, TG 20 μM, DAP 50 μM where present, initial Coulter count/ml 308,000) is given as 220,000 /ml. For the same molecule, the “inhibition of growth of MTAP(+) ML-1 cells” value in the assay on MTAP(+) ML-1 cells (Example 14) is recorded as “inhibited growth”. Besides, the “Coulter counts” value with MTAP(+) HF cells [1] (3 days, MTX 10 μM, DAP 100 μM, 5′-dAdo, MTA or Ade 15 μM where present, thymidine 15 μM in all cultures, initial count 1807) is 2,483. The Increase in cells/dish in the assay with MTAP(+) HF cells [1] (3 days, TG 40 μM, DAP 50 μM, 5′-dAdo 60 μM where present, initial cell number 296,000) was 254,000 cells/dish. Also, in the assay with MTAP(+) HF cells [1] (Example 8), the “inhibition of MTAP(+) HF cells” value is “inhibited”. Further, the “inhibition of HF cell growth” value with MTAP(+) HF cells [1] (Example 15) is listed as “inhibited”. The “killing of HF cells in coculture” value (in assay [6] (setting [9]); with MTAP(+) HF cells [8] (DAP alone)) was “effectively killed” throughout. In assay [6] (setting [10]), the “HF cells in coculture (photographs, FIG. 6B)” value was “very few, if any, HF or MCF7 cells have survived”. Further, in [7] (setting [9]), the “killing of MCF7 cells in coculture” value is reported as “effectively killed”. Further, the “MCF7 cells in coculture (photographs, FIG. 6B)” value in [7] (setting [10]) is “very few, if any, HF or MCF7 cells have survived”. The “killing of human and mouse tumor cells” value in assay [3] is “very rapid and potent killing”. For the same molecule, the “toxicity to MTAP(−) A549 cells” value in the assay with MTAP(−) A549 cells [5] (100 μM DAP) was “highly toxic”. Also, the “Viable Cells” value is 12,000 in the assay on MTAP(−) A549 cells [5] (3 days, TG 40 μM, DAP 50 μM where present, initial viable cells 275,000); 59,000 with MTAP(−) A549 cells [5] (MTX 1 μM or alanosine 3 μM for one day, then DAP 40 μM, 3 days (where present), initial viable cells 146,000); 0 with MTAP(−) A549 cells [5] (three days, DAP 100 μM, 5′-dAdo or Ade 30 μM where present, initial viable cells 180,000). In addition, in the assay with MTAP(−) A549-ouaR cells (DAP alone), the “killing of A549-ouaR cells in coculture” value is given as “effectively killed”. Further, the “Viable A549-ouaR” value in the assay on MTAP(−) A549-ouaR cells (coculture, 3 days, DAP 125 μM, 5′-dAdo 7.5 μM where present, initial viable A549-ouaR cells 40,000) stood at 0. Further, the “Viable HF” value in the assay on MTAP(+) HF cells [8] (coculture, 3 days, DAP 125 μM, 5′-dAdo 7.5 μM where present, initial viable HF cells 11,000) worked out at 240.
